The record followed here is US20120201749A1, “NP-1 Antagonists and Their Therapeutic Use” (priority 2009, published 2012).

In this experiment the target is NP-1 (Homo sapiens, UniProt O14786). In words: Biotinylated-VEGF-A165 (bt-VEGF-A165) binding to NP-1. The following applies: for inhibition at 3 µM: 3 μM compound, read-out: Screen (% inhibition at 3 μM); for inhibition at 30 µM: 30 μM compound, read-out: Screen (% inhibition at 30 μM). On the procedure: Human prostate carcinoma DU145 cells were cultured in growth medium (RPMI 1640 containing 10% FBS and L-glutamine). DU145 cells were seeded at the density of 2×10^4 cells per well (96-well plates) in 0.1 ml growth medium and transfected with adenovirus vectors containing the full-length open-reading frame of human NP-1. The Ad.NP-1-transfected cells grew for 2 days prior to a binding assay.
Confluent Ad.NP-1-transfected cells in 96-well plates were washed twice with phosphate-buffered saline (PBS). The various concentrations of compounds diluted in binding medium (Dulbecco's modified Eagle's medium, 25 mM HEPES pH 7.3 containing 0.1% BSA) were added, followed by addition of 2 nM of bt-VEGF-A165. After 2 h of incubation at room temperature, the medium was aspirated and washed three times with PBS. The bound bt-VEGF-A165 to NP-1 was detected by streptavidin-horseradish peroxidase conjugates and the enzyme substrate, and measured using a Tecan Genios plate reader at A450 nm with a reference wavelength at A595 nm. Non-specific binding was determined in the presence of 100-fold excess unlabelled VEGF-A165.
The 96-well plates were pre-coated with NP1 protein at 3 μg/ml overnight at 4° C. On the following day, the plates were treated with blocking buffer (PBS containing 1% BSA) and washed three times with wash buffer (PBS containing 0.1% Tween-20). The various concentrations of compounds diluted in PBS containing 1% DMSO were added, followed by addition of 0.25 nM of bt-VEGF-A165. After 2 h of incubation at room temperature, the plates were washed three times with wash buffer. The bound bt-VEGF-A165 to NP-1 was detected by streptavidin-horseradish peroxidase conjugates and the enzyme substrate, and measured using a Tecan Genios plate reader at A450 nm with a reference wavelength at A595 nm. Nonspecific binding was determined in the absence of NP-1 coated wells of the plates.

The structures appear in SMILES notation.

NP-1, sequence (O14786 22-923): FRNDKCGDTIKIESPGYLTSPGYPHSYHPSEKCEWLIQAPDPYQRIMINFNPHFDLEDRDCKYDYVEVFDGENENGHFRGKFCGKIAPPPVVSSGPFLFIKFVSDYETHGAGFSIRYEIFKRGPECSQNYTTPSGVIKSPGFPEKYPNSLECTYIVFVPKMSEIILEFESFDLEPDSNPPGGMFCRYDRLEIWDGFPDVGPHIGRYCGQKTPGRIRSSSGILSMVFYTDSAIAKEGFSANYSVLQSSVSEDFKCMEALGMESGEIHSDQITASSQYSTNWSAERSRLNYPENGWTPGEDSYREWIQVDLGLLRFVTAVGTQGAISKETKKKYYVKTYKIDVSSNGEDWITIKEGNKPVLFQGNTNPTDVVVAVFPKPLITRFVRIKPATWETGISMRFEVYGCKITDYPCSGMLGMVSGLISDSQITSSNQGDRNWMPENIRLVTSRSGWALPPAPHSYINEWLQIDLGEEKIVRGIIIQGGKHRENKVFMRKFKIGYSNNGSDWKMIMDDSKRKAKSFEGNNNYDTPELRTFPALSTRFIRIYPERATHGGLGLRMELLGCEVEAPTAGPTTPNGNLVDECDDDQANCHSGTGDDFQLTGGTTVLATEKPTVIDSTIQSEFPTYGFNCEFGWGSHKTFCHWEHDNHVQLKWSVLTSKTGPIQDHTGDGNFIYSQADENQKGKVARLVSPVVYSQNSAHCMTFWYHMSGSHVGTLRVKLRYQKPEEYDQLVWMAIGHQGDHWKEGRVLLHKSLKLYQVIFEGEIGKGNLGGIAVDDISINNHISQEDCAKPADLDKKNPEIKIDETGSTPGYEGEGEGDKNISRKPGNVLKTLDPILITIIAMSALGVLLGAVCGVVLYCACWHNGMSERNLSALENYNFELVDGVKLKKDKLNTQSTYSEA

Consider `N=C(N)NCCC[C@H](NC(=O)c1sccc1NS(=O)(=O)c1cc(-c2ccccc2CNCc2ccncc2)cc2c1OCC2)C(=O)O` [Compound 19, (S)-5-Guanidino-2-({3-[5-(2-{[(pyridin-4-ylmethyl)-amino]-methyl}-phenyl)-2,3-dihydro-benzofuran-7-sulfonylamino]-thiophene-2-carbonyl}-amino)-pentanoic acid], for which the inhibition at 3 µM worked out at 56%.

Regarding `N=C(N)NCCC[C@H](NC(=O)c1sccc1NS(=O)(=O)c1cc(-c2ccccc2CN2CCNCC2)cc2c1OCC2)C(=O)O` [Compound 20, (S)-5-Guanidino-2-({3-[5-(2-piperazin-1-ylmethyl-phenyl)-2,3-dihydro-benzofuran-7-sulfonylamino]-thiophene-2-carbonyl}-amino)-pentanoic acid], the half-maximal inhibitory concentration (IC50) is 2000 nM, the inhibition at 3 µM amounted to 82% and the inhibition at 30 µM was determined as 100%.

`N=C(N)NCCC[C@H](NC(=O)c1sccc1NS(=O)(=O)c1cc(-c2ccccc2CN2CCC(N)CC2)cc2c1OCC2)C(=O)O` [Compound 21, (S)-2-[(3-{5-[2-(4-Amino-piperidin-1-ylmethyl)-phenyl]-2,3-dihydro-benzofuran-7-sulfonylamino}-thiophene-2-carbonyl)-amino]-5-guanidino-pentanoic acid]: the inhibition at 3 µM was found to be 73%.

Turning to `N=C(N)NCCC[C@H](NC(=O)c1sccc1NS(=O)(=O)c1cc(-c2cccc(CN3CCC(N4CCOCC4)CC3)c2)cc2c1OCC2)C(=O)O` [Compound 22, (S)-5-Guanidino-2-[(3-{5-[3-(4-morpholin-4-yl-piperidin-1-ylmethyl)-phenyl]-2,3-dihydro-benzofuran-7-sulfonylamino}-thiophene-2-carbonyl)-amino]-pentanoic acid], the inhibition at 3 µM came to 70% and the inhibition at 30 µM was determined as 98%.

Turning to `Cn1cncc1CNCc1ccccc1-c1cc2c(c(S(=O)(=O)Nc3ccsc3C(=O)N[C@@H](CCCNC(=N)N)C(=O)O)c1)OCC2` [Compound 23, (S)-5-Guanidino-2-({3-[5-(2-{[(3-methyl-3H-imidazol-4-ylmethyl)-amino]-methyl}-phenyl)-2,3-dihydro-benzofuran-7-sulfonylamino]-thiophene-2-carbonyl}-amino)-pentanoic acid], the inhibition at 3 µM was 58% and the inhibition at 30 µM worked out at 97%.

Regarding `N=C(N)NCCC[C@H](NC(=O)c1sccc1NS(=O)(=O)c1cc(-c2ccccc2CNCc2ncc[nH]2)cc2c1OCC2)C(=O)O` [Compound 24, (S)-5-Guanidino-2-({3-[5-(2-{[(1H-imidazol-2-ylmethyl)-amino]-methyl}-phenyl)-2,3-dihydro-benzofuran-7-sulfonylamino]-thiophene-2-carbonyl}-amino)-pentanoic acid], the inhibition at 3 µM worked out at 67% and the inhibition at 30 µM was 100%.

As for `N=C(N)NCCC[C@H](NC(=O)c1sccc1NS(=O)(=O)c1cc(-c2ccccc2CN2CCC(N3CCOCC3)CC2)cc2c1OCC2)C(=O)O` [Compound 25, (S)-5-Guanidino-2-[(3-{5-[2-(4-morpholin-4-yl-piperidin-1-ylmethyl)-phenyl]-2,3-dihydro-benzofuran-7-sulfonylamino}-thiophene-2-carbonyl)-amino]-pentanoic acid], the IC50 was determined as 635 nM, the inhibition at 3 µM came to 83% and the inhibition at 30 µM was 100%.

With `Cc1cc(CNCc2ccccc2-c2cc3c(c(S(=O)(=O)Nc4ccsc4C(=O)N[C@@H](CCCNC(=N)N)C(=O)O)c2)OCC3)no1` [Compound 26, (S)-5-Guanidino-2-({3-[5-(2-{[(5-methyl-isoxazol-3-ylmethyl)-amino]-methyl}-phenyl)-2,3-dihydro-benzofuran-7-sulfonylamino]-thiophene-2-carbonyl}-amino)-pentanoic acid], the inhibition at 3 µM turned out to be 55% and the inhibition at 30 µM is 100%.

`N=C(N)NCCC[C@H](NC(=O)c1sccc1NS(=O)(=O)c1cc(-c2cccc(CN3CCN(c4ccccn4)CC3)c2)cc2c1OCC2)C(=O)O` [Compound 27, (S)-5-Guanidino-2-[(3-{5-[3-(4-pyridin-2-yl-piperazin-1-ylmethyl)-phenyl]-2,3-dihydro-benzofuran-7-sulfonylamino}-thiophene-2-carbonyl)-amino]-pentanoic acid]: the half-maximal inhibitory concentration (IC50) is 625 nM, the inhibition at 3 µM was determined as 88% and the inhibition at 30 µM is 97%.

For the molecule `N=C(N)NCCC[C@H](NC(=O)c1sccc1NS(=O)(=O)c1cc(-c2cccc(CN3CCN(c4ccncc4)CC3)c2)cc2c1OCC2)C(=O)O` [Compound 28, (S)-5-Guanidino-2-[(3-{5-[3-(4-pyridin-4-yl-piperazin-1-ylmethyl)-phenyl]-2,3-dihydro-benzofuran-7-sulfonylamino}-thiophene-2-carbonyl)-amino]-pentanoic acid], the IC50 worked out at 216 nM, the inhibition at 3 µM worked out at 96% and the inhibition at 30 µM was determined as 100%.

For the molecule `N=C(N)NCCC[C@H](NC(=O)c1sccc1NS(=O)(=O)c1cc(-c2cccc(CN3CCN(Cc4ccccn4)CC3)c2)cc2c1OCC2)C(=O)O` [Compound 29, (S)-5-Guanidino-2-[(3-{5-[3-(4-pyridin-2-ylmethyl-piperazin-1-ylmethyl)-phenyl]-2,3-dihydro-benzofuran-7-sulfonylamino}-thiophene-2-carbonyl)-amino]-pentanoic acid], the concentration for half-maximal inhibition (IC50) is 686 nM, the inhibition at 3 µM is 79% and the inhibition at 30 µM came to 100%.

As for `N=C(N)NCCC[C@H](NC(=O)c1sccc1NS(=O)(=O)c1cc(-c2cccc(CN3CCN(Cc4ccncc4)CC3)c2)cc2c1OCC2)C(=O)O` [Compound 30, (S)-5-Guanidino-2-[(3-{5-[3-(4-pyridin-4-ylmethyl-piperazin-1-ylmethyl)-phenyl]-2,3-dihydro-benzofuran-7-sulfonylamino}-thiophene-2-carbonyl)-amino]-pentanoic acid], the IC50 is 691 nM, the inhibition at 3 µM was 80% and the inhibition at 30 µM is 100%.

For the molecule `N=C(N)NCCC[C@H](NC(=O)c1sccc1NS(=O)(=O)c1cc(-c2cccc(CNCc3ccccn3)c2)cc2c1OCC2)C(=O)O` [Compound 31, (S)-5-Guanidino-2-({3-[5-(3-{[(pyridin-2-ylmethyl)-amino]-methyl}-phenyl)-2,3-dihydro-benzofuran-7-sulfonylamino]-thiophene-2-carbonyl}-amino)-pentanoic acid], the IC50 is 105 nM, the inhibition at 3 µM amounted to 86% and the inhibition at 30 µM was 99%.

As for `N=C(N)NCCC[C@H](NC(=O)c1sccc1NS(=O)(=O)c1cc(-c2cccc(CNCc3ccncc3)c2)cc2c1OCC2)C(=O)O` [Compound 32, (S)-5-Guanidino-2-({3-[5-(3-{[(pyridin-4-ylmethyl)-amino]-methyl}-phenyl)-2,3-dihydro-benzofuran-7-sulfonylamino]-thiophene-2-carbonyl}-amino)-pentanoic acid], the inhibition at 3 µM stood at 75%.

Consider `N=C(N)NCCC[C@H](NC(=O)c1sccc1NS(=O)(=O)c1cc(-c2cccc(CN3CCNCC3)c2)cc2c1OCC2)C(=O)O` [Compound 33, (S)-5-Guanidino-2-({3-[5-(3-piperazin-1-ylmethyl-phenyl)-2,3-dihydro-benzofuran-7-sulfonylamino]-thiophene-2-carbonyl}-amino)-pentanoic acid], for which the IC50 is 365 nM, the inhibition at 3 µM amounted to 81% and the inhibition at 30 µM is 100%.

For `N=C(N)NCCC[C@H](NC(=O)c1sccc1NS(=O)(=O)c1cc(-c2cccc(CN3CCC(N)CC3)c2)cc2c1OCC2)C(=O)O` [Compound 34, (S)-2-[(3-{5-[3-(4-Amino-piperidin-1-ylmethyl)-phenyl]-2,3-dihydro-benzofuran-7-sulfonylamino}-thiophene-2-carbonyl)-amino]-5-guanidino-pentanoic acid], the inhibition at 3 µM came to 50% and the inhibition at 30 µM turned out to be 94%.

Take `N=C(N)NCCC[C@H](NC(=O)c1sccc1NS(=O)(=O)c1cc(-c2cccc(CNCCO)c2)cc2c1OCC2)C(=O)O` [Compound 35, (S)-5-Guanidino-2-{[3-(5-{3-[(2-hydroxy-ethylamino)-methyl]-phenyl}-2,3-dihydro-benzofuran-7-sulfonylamino)-thiophene-2-carbonyl]-amino}-pentanoic acid]: the inhibition at 3 µM worked out at 71% and the inhibition at 30 µM came out at 96%.

As for `Cn1cncc1CNCc1cccc(-c2cc3c(c(S(=O)(=O)Nc4ccsc4C(=O)N[C@@H](CCCNC(=N)N)C(=O)O)c2)OCC3)c1` [Compound 36, (S)-5-Guranidino-2-({3-[5-(3-{[(3-methyl-3H-imidazol-4-ylmethyl)-amino]-methyl}-phenyl)-2,3-dihydro-benzofuran-7-sulfonylamino]-thiophene-2-carbonyl}-amino)-pentanoic acid], the 50% inhibitory concentration (IC50) was 320 nM, the inhibition at 3 µM was determined as 84% and the inhibition at 30 µM is 98%.

As usually defined, the inhibition is the change of the read-out against control, counted positive when it falls. In general, IC50 refers to the concentration that gives 50% inhibition. Read a low IC50 as greater potency.
